Legend:
Assay in all cases: relative viability (nuclei count vs DMSO), 5 days (fraction); higher = more cells survive
NCI-H1793 = test system: NCI-H1793
Summary of the method: (§1)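 Nuclei were stained with Hoechst during a one-step fixation (final 0.05% Triton X-100, 1% formaldehyde, 1 ug/ml Hoechst) carried out 5 days after dosing, then counted on 4× images. The cells, lung cancer lines in 1536-well plates, had been dosed by pin tool the day after seeding with one drug alone or a fixed anchor-drug dose plus five library-drug doses (not always all listed) in √10 steps. Relative viability is the nuclei count in treated wells divided by that in vehicle wells, and each value is the median of duplicate plates.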

NCI-H1437 = test system: NCI-H1437
Summary of the method: as §1

HCC-366 = test system: HCC-366
Summary of the method: as §1

NCI-H1650 = test system: NCI-H1650
Summary of the method: as §1

NCI-H460 = test system: NCI-H460
Summary of the method: as §1

NCI-H2023 = test system: NCI-H2023
Summary of the method: as §1

LU99A = test system: LU99A
Summary of the method: as §1

NCI-H441 = test system: NCI-H441
Summary of the method: as §1

NCI-H1355 = test system: NCI-H1355
Summary of the method: as §1

LOU-NH91 = test system: LOU-NH91
Summary of the method: as §1

NCI-H838 = test system: NCI-H838
Summary of the method: as §1

COR-L23 = test system: COR-L23
Summary of the method: as §1

NCI-H1651 = test system: NCI-H1651
Summary of the method: as §1

NCI-H1734 = test system: NCI-H1734
Summary of the method: as §1

NCI-H1975 = test system: NCI-H1975
Summary of the method: as §1

NCI-H358 = test system: NCI-H358
Summary of the method: as §1

BEN = test system: BEN
Summary of the method: as §1

CAL-12T = test system: CAL-12T
Summary of the method: as §1

NCI-H2342 = test system: NCI-H2342
Summary of the method: as §1

NCI-H2085 = test system: NCI-H2085
Summary of the method: as §1

SK-LU-1 = test system: SK-LU-1
Summary of the method: as §1

COc1nc(C)cnc1NS(=O)(=O)c1cccnc1-c1ccc(-c2nnco2)cc1 [Zibotentan] + O=C(CCCCCCC(=O)Nc1ccccc1)NO [Vorinostat] (partner 1 µM)
relative viability (NCI-H1793; first compound 0.08 µM): 0.673
relative viability (NCI-H1793; first compound 0.253 µM): 0.673
relative viability (NCI-H1793; first compound 0.8 µM): 0.925
relative viability (NCI-H1793; first compound 2.53 µM): 0.973
relative viability (NCI-H1437; first compound 0.08 µM): 1.05
relative viability (NCI-H1437; first compound 0.253 µM): 0.823
relative viability (NCI-H1437; first compound 0.8 µM): 0.834
relative viability (NCI-H1437; first compound 2.53 µM): 0.828
relative viability (HCC-366; first compound 0.08 µM): 0.461
relative viability (HCC-366; first compound 0.253 µM): 0.248
relative viability (HCC-366; first compound 0.8 µM): 0.21
relative viability (HCC-366; first compound 2.53 µM): 0.358
relative viability (NCI-H1650; first compound 0.08 µM): 0.528
relative viability (NCI-H1650; first compound 0.8 µM): 0.61
relative viability (NCI-H1650; first compound 2.53 µM): 0.646
relative viability (NCI-H460; first compound 0.08 µM): 0.673
relative viability (NCI-H460; first compound 0.253 µM): 0.541
relative viability (NCI-H460; first compound 0.8 µM): 0.739
relative viability (NCI-H460; first compound 2.53 µM): 0.719
relative viability (NCI-H2023; first compound 0.08 µM): 0.849
relative viability (NCI-H2023; first compound 0.8 µM): 0.562
relative viability (NCI-H2023; first compound 2.53 µM): 0.846
relative viability (LU99A; first compound 0.08 µM): 0.514
relative viability (LU99A; first compound 0.253 µM): 0.537
relative viability (LU99A; first compound 0.8 µM): 0.463
relative viability (LU99A; first compound 2.53 µM): 0.477
relative viability (NCI-H441; first compound 0.08 µM): 0.78
relative viability (NCI-H441; first compound 0.253 µM): 0.721
relative viability (NCI-H441; first compound 0.8 µM): 0.783
relative viability (NCI-H441; first compound 2.53 µM): 0.794
relative viability (NCI-H1355; first compound 0.08 µM): 0.682
relative viability (NCI-H1355; first compound 0.253 µM): 0.584
relative viability (NCI-H1355; first compound 0.8 µM): 0.657
relative viability (NCI-H1355; first compound 2.53 µM): 0.69
relative viability (LOU-NH91; first compound 0.08 µM): 0.941
relative viability (LOU-NH91; first compound 0.253 µM): 0.78
relative viability (LOU-NH91; first compound 0.8 µM): 0.953
relative viability (LOU-NH91; first compound 2.53 µM): 0.947
relative viability (NCI-H838; first compound 0.08 µM): 0.762
relative viability (NCI-H838; first compound 0.253 µM): 0.716
relative viability (NCI-H838; first compound 0.8 µM): 0.757
relative viability (NCI-H838; first compound 2.53 µM): 0.771
relative viability (COR-L23; first compound 0.08 µM): 0.448
relative viability (COR-L23; first compound 0.253 µM): 0.446
relative viability (COR-L23; first compound 0.8 µM): 0.351
relative viability (COR-L23; first compound 2.53 µM): 0.46
relative viability (NCI-H1651; first compound 0.08 µM): 0.543
relative viability (NCI-H1651; first compound 0.253 µM): 0.492
relative viability (NCI-H1651; first compound 0.8 µM): 0.559
relative viability (NCI-H1651; first compound 2.53 µM): 0.461
relative viability (NCI-H1734; first compound 0.08 µM): 0.842
relative viability (NCI-H1734; first compound 0.253 µM): 0.705
relative viability (NCI-H1734; first compound 0.8 µM): 0.864
relative viability (NCI-H1734; first compound 2.53 µM): 0.912
relative viability (NCI-H1975; first compound 0.08 µM): 0.758
relative viability (NCI-H1975; first compound 0.253 µM): 0.646
relative viability (NCI-H1975; first compound 0.8 µM): 0.632
relative viability (NCI-H1975; first compound 2.53 µM): 0.7
relative viability (NCI-H358; first compound 0.08 µM): 0.563
relative viability (NCI-H358; first compound 0.253 µM): 0.552
relative viability (NCI-H358; first compound 2.53 µM): 0.751
relative viability (BEN; first compound 0.08 µM): 0.571
relative viability (BEN; first compound 0.253 µM): 0.556
relative viability (BEN; first compound 0.8 µM): 0.568
relative viability (BEN; first compound 2.53 µM): 0.517
relative viability (CAL-12T; first compound 0.08 µM): 0.887
relative viability (CAL-12T; first compound 0.253 µM): 0.543
relative viability (CAL-12T; first compound 0.8 µM): 0.742
relative viability (CAL-12T; first compound 2.53 µM): 0.714
relative viability (NCI-H2342; first compound 0.08 µM): 0.832
relative viability (NCI-H2342; first compound 0.253 µM): 0.778
relative viability (NCI-H2342; first compound 0.8 µM): 0.778
relative viability (NCI-H2342; first compound 2.53 µM): 0.678
relative viability (NCI-H2085; first compound 0.08 µM): 0.762
relative viability (NCI-H2085; first compound 0.253 µM): 0.766
relative viability (NCI-H2085; first compound 0.8 µM): 0.769
relative viability (NCI-H2085; first compound 2.53 µM): 0.824
relative viability (SK-LU-1; first compound 0.08 µM): 0.697
relative viability (SK-LU-1; first compound 0.253 µM): 0.726
relative viability (SK-LU-1; first compound 0.8 µM): 0.819
relative viability (SK-LU-1; first compound 2.53 µM): 0.83

Reference: the supplement of paper PMC10307832
